Measured values: ChEMBL document CHEMBL4507268 (2021)

Experiments:
Settings in all cases: Compound concentration 1.0 uM
[1] = target: Calcium/calmodulin-dependent protein kinase type 1B (Homo sapiens) (UniProt Q6P2M8)
[2] = target: Cyclin-dependent kinase 5/CDK5 activator 1 (Homo sapiens) (UniProt Q00535+Q15078)
[3] = target: T1, Ephrin type-B receptor 2 (Homo sapiens) (UniProt P29323)
T1 sequence (whole entry): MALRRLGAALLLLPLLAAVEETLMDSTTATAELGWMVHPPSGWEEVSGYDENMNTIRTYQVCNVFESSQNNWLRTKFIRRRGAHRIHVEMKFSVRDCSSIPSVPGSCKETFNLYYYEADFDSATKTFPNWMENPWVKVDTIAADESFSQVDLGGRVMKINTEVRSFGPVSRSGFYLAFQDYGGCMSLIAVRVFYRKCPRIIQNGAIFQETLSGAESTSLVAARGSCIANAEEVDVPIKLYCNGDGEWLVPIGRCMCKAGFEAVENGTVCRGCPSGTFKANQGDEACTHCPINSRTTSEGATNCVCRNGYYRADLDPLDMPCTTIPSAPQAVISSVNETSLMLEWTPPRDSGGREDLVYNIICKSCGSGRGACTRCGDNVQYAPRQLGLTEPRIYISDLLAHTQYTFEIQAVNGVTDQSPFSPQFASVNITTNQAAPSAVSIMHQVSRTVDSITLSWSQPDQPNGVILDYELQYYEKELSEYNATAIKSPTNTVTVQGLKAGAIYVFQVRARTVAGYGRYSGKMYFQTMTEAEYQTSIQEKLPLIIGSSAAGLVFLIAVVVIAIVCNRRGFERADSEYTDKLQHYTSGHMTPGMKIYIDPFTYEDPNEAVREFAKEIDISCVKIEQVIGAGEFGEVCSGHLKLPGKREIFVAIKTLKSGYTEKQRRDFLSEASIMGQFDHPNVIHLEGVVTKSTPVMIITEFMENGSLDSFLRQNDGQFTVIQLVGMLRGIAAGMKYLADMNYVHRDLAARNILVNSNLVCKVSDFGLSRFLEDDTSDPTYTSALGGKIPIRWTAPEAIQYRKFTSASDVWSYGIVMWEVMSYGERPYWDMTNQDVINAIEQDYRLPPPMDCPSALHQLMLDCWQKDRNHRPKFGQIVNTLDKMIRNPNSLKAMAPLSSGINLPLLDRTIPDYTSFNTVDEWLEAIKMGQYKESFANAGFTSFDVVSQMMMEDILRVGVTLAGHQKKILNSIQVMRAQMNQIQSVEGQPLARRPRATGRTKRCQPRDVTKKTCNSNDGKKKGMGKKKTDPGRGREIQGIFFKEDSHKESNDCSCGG

[4] = target: Tyrosine-protein kinase Fes/Fps (Homo sapiens) (UniProt P07332)
Chain of Tyrosine-protein kinase Fes/Fps (Homo sapiens) (P07332 whole entry): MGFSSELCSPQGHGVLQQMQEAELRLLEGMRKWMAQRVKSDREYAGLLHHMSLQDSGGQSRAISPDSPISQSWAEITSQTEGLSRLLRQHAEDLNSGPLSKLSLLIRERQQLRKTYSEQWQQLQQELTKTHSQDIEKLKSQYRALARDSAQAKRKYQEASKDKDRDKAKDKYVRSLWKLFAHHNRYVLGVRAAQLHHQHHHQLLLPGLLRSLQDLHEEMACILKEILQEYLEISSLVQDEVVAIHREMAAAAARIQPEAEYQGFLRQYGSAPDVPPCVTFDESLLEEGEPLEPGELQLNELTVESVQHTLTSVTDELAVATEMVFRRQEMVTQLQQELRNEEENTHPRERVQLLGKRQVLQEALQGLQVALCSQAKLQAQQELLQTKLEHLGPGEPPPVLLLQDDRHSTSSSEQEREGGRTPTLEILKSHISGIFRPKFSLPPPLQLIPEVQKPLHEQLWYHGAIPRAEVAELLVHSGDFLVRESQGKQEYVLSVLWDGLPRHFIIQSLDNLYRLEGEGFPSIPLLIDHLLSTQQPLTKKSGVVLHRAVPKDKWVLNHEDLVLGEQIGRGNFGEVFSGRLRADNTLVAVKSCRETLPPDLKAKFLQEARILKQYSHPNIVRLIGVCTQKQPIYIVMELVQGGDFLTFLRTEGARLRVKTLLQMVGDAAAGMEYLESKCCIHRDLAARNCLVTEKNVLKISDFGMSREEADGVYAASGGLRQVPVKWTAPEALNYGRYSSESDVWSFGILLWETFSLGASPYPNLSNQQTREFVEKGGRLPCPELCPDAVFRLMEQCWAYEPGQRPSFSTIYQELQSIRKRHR

[5] = target: Glycogen synthase kinase-3 beta (Homo sapiens) (UniProt P49841)
Chain of Glycogen synthase kinase-3 beta (Homo sapiens) (P49841 whole entry, looked up): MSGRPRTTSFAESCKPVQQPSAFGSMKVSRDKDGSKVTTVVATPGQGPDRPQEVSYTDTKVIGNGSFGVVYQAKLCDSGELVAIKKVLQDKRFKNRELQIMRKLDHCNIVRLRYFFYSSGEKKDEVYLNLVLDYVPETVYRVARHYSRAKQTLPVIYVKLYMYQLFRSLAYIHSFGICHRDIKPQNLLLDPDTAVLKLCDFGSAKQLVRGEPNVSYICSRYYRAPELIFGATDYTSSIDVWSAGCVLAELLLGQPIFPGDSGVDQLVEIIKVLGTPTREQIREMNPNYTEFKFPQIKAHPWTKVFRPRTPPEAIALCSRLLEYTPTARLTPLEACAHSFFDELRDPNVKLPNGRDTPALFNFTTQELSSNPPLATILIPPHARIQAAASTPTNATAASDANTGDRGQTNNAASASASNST

[6] = target: Homeodomain-interacting protein kinase 1 (Homo sapiens) (UniProt Q86Z02)
[7] = target: Homeodomain-interacting protein kinase 3 (Homo sapiens) (UniProt Q9H422)
[8] = target: Dual specificity mitogen-activated protein kinase kinase 1 (Homo sapiens) (UniProt Q02750)
Chain of Dual specificity mitogen-activated protein kinase kinase 1 (Homo sapiens) (Q02750 whole entry): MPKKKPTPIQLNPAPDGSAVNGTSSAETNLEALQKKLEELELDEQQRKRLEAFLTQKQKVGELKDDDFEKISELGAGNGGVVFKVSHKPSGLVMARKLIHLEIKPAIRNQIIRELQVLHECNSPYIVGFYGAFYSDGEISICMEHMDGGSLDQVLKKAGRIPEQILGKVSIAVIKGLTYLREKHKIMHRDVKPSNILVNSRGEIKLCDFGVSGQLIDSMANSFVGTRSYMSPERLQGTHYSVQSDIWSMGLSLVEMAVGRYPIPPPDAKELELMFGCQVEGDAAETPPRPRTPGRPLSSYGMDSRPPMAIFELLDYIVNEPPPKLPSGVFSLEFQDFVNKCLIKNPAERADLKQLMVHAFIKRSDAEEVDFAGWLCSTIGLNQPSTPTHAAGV

[9] = target: MAP kinase-interacting serine/threonine-protein kinase 2 (Homo sapiens) (UniProt Q9HBH9)
Chain of MAP kinase-interacting serine/threonine-protein kinase 2 (Homo sapiens) (Q9HBH9 whole entry, looked up): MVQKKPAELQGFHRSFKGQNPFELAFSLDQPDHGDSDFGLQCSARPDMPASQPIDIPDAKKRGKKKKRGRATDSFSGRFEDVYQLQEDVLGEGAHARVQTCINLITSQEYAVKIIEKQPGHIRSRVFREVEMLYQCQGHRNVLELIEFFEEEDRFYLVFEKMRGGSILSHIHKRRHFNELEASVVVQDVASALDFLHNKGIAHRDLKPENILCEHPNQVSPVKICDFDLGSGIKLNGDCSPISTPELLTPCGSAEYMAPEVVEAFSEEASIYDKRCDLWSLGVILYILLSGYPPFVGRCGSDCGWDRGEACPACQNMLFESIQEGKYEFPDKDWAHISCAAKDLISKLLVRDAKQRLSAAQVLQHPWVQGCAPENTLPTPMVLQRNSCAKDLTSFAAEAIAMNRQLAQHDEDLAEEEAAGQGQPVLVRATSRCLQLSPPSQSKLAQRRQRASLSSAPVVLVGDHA

[10] = target: [Pyruvate dehydrogenase (acetyl-transferring)] kinase isozyme 4, mitochondrial (Homo sapiens) (UniProt Q16654)
[11] = target: RAC-beta serine/threonine-protein kinase (Homo sapiens) (UniProt P31751)
[12] = target: T2, cGMP-dependent protein kinase 1 (Homo sapiens) (UniProt Q13976)
T2 sequence (whole entry): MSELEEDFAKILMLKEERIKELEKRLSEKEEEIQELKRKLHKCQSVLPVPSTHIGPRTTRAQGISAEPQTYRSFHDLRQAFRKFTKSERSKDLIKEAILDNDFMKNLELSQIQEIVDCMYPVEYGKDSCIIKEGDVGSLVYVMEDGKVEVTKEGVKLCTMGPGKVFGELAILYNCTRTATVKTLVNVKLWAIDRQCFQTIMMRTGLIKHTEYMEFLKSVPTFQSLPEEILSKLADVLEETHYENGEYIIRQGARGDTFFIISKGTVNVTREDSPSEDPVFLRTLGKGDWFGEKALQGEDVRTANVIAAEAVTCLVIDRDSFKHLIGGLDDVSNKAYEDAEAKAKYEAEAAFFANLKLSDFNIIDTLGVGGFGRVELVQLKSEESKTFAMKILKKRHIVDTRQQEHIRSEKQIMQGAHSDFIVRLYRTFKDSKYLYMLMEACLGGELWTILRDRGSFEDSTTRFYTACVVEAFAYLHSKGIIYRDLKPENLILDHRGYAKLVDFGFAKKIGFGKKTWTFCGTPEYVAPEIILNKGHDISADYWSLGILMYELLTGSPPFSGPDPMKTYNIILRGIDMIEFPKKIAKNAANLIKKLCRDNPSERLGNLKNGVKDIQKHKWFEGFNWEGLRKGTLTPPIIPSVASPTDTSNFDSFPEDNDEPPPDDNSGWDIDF

[13] = target: T3, cAMP-dependent protein kinase catalytic subunit PRKX (Homo sapiens) (UniProt P51817)
T3 sequence (whole entry): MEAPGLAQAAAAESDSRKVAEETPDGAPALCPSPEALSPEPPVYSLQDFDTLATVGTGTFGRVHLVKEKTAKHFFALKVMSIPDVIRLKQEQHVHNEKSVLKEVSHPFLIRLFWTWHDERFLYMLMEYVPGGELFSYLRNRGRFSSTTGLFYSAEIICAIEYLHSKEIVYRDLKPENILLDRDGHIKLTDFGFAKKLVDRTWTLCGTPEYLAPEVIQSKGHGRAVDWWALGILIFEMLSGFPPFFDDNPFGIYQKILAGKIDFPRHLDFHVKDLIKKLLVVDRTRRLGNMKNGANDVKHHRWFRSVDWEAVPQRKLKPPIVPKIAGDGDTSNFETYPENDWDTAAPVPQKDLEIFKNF

[14] = target: Tyrosine-protein kinase FRK (Homo sapiens) (UniProt P42685)
[15] = target: Serine/threonine-protein kinase SIK2 (Homo sapiens) (UniProt Q9H0K1)
[16] = target: Serine/threonine-protein kinase SIK3 (Homo sapiens) (UniProt Q9Y2K2)
Chain of Serine/threonine-protein kinase SIK3 (Homo sapiens) (Q9Y2K2 whole entry, looked up): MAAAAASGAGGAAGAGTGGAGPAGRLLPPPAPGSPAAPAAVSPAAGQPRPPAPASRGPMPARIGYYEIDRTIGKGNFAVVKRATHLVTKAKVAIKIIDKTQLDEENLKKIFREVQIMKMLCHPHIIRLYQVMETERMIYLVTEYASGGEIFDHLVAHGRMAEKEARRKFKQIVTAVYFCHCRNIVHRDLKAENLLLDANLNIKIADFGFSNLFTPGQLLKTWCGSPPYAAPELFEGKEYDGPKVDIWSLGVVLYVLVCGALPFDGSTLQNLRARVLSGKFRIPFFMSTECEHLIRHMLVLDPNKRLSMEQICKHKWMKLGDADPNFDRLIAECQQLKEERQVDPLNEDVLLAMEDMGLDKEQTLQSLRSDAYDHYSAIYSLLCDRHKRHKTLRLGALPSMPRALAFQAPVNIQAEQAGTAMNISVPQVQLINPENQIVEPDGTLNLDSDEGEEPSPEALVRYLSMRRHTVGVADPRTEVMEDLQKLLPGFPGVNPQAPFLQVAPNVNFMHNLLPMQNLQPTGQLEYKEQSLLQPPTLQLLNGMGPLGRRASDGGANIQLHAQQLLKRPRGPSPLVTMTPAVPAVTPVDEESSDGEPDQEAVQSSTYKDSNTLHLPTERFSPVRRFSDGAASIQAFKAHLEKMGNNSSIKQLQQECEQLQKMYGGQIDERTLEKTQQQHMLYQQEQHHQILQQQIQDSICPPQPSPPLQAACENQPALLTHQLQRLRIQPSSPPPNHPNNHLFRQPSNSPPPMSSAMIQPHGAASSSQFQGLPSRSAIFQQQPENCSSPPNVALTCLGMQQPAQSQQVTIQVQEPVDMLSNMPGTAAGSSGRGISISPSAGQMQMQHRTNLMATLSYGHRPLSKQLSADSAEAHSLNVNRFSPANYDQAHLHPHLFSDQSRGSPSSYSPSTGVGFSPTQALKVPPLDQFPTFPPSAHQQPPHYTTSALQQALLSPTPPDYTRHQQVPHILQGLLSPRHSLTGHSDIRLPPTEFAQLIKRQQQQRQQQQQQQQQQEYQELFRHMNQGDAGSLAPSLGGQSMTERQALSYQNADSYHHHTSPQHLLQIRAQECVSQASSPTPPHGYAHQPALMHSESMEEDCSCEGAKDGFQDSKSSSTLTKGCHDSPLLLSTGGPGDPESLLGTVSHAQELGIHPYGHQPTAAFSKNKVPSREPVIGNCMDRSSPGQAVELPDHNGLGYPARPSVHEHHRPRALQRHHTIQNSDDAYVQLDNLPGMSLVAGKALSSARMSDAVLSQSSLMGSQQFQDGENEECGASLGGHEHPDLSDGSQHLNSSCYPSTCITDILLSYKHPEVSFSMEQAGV

[17] = target: Serine/threonine-protein kinase 32B (Homo sapiens) (UniProt Q9NY57)
Chain of Serine/threonine-protein kinase 32B (Homo sapiens) (Q9NY57 whole entry): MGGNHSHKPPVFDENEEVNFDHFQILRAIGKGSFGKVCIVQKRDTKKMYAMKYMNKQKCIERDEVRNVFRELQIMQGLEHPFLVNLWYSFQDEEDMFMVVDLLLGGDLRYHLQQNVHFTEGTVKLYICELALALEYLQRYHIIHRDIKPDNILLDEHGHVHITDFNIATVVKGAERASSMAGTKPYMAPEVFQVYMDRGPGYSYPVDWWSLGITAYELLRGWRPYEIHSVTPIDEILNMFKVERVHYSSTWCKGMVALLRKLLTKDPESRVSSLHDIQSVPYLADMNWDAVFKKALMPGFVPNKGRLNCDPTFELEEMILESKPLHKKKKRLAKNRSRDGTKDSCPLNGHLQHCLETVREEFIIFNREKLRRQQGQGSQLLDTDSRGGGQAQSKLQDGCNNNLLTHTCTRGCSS

Measured: % residual kinase activity

Chain of Cyclin-dependent kinase 5/CDK5 activator 1 (Homo sapiens) (Q00535 whole entry): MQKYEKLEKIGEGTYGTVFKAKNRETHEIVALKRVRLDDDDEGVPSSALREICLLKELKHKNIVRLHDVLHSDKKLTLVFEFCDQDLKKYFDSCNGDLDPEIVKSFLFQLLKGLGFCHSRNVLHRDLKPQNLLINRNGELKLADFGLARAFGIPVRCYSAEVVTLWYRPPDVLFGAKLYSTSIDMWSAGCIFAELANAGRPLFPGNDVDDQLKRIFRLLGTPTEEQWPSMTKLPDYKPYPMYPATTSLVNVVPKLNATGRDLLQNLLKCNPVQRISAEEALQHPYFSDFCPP
Chain of Cyclin-dependent kinase 5/CDK5 activator 1 (Homo sapiens) (Q15078 99-307 partner limits assumed): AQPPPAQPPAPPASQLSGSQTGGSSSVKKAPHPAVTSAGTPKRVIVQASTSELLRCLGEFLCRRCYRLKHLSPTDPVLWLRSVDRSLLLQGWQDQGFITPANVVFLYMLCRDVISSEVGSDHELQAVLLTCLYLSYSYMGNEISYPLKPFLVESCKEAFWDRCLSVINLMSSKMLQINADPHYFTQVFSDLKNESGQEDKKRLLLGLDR
Chain of Calcium/calmodulin-dependent protein kinase type 1B (Homo sapiens) (Q6P2M8 whole entry): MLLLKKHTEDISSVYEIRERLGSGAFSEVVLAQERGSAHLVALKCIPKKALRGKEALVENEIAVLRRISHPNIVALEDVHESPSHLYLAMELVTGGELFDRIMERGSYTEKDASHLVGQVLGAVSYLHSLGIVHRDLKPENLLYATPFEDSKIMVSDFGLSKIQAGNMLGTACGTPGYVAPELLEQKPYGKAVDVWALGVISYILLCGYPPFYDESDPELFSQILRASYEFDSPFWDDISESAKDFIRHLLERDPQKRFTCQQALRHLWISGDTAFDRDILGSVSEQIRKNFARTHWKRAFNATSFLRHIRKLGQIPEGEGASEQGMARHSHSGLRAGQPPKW

CN1CCN(c2cnc3c(C4CCN(C(=O)c5ccc(OC(F)(F)F)cc5N)CC4)ncnc3c2)CC1 [BAY-885]
inactive: [1] 104% | [2] 107% | [3] 93% | [4] 108% | [5] 99% | [6] 116% | [7] 108% | [8] 115% | [9] 99% | [10] 104% | [11] 109% | [12] 115% | [13] 121% | [14] 109% | [15] 101% | [16] 96% | [17] 98%
